According to PubChem BioAssay AID1259407 (Chemical Carcinogenesis Research Information System (CCRIS), 2018):
Active and inactive are the calls of the source. The rule behind the calls is not given here.

Tested on: CCRIS mutagenicity, Ames/micronucleus/aberration tests
Test: CCRIS mutagenicity studies
[1] = Test System: AMES SALMONELLA TYPHIMURIUM, Strain/Indicator: TA100, Metabolic Activation: NONE, Method: STANDARD PLATE
[2] = Test System: AMES SALMONELLA TYPHIMURIUM, Strain/Indicator: TA1537, Metabolic Activation: NONE, Method: STANDARD PLATE

Nc1ccc(N)c2c1C(=O)c1c(N)ccc(N)c1C2=O
mutagenic call (End Point: IN VITRO CHROMOSOMAL ABERRATIONS, Test System: CHO CELLS, Metabolic Activation: NONE): active; positive
mutagenic call (End Point: IN VITRO CHROMOSOMAL ABERRATIONS, Test System: CHO CELLS, Metabolic Activation: RAT, LIVER, S-9, AROCLOR 1254): active; positive
mutagenic call (Test System: AMES SALMONELLA TYPHIMURIUM, Strain/Indicator: TA97, Metabolic Activation: HAMSTER, LIVER, S-9, AROCLOR 1254 (10%), Method: PREINCUBATION): inactive; negative
mutagenic call (Test System: AMES SALMONELLA TYPHIMURIUM, Strain/Indicator: TA97, Metabolic Activation: HAMSTER, LIVER, S-9, AROCLOR 1254, Method: PREINCUBATION): active; positive
mutagenic call (Test System: AMES SALMONELLA TYPHIMURIUM, Strain/Indicator: TA97, Metabolic Activation: NONE, Method: PREINCUBATION): active; positive
mutagenic call (Test System: AMES SALMONELLA TYPHIMURIUM, Strain/Indicator: TA97, Metabolic Activation: RAT, LIVER, S-9, AROCLOR 1254 (10%), Method: PREINCUBATION): inactive; negative
mutagenic call (Test System: AMES SALMONELLA TYPHIMURIUM, Strain/Indicator: TA97, Metabolic Activation: RAT, LIVER, S-9, AROCLOR 1254, Method: PREINCUBATION): active; positive
mutagenic call (Test System: AMES SALMONELLA TYPHIMURIUM, Strain/Indicator: TA98, Metabolic Activation: HAMSTER, LIVER, S-9, AROCLOR 1254 (10%), Method: PREINCUBATION): active; positive
mutagenic call (Test System: AMES SALMONELLA TYPHIMURIUM, Strain/Indicator: TA98, Metabolic Activation: HAMSTER, LIVER, S-9, AROCLOR 1254, Method: PREINCUBATION): active; positive
mutagenic call (Test System: AMES SALMONELLA TYPHIMURIUM, Strain/Indicator: TA98, Metabolic Activation: NONE, Method: PREINCUBATION): active; positive
mutagenic call (Test System: AMES SALMONELLA TYPHIMURIUM, Strain/Indicator: TA98, Metabolic Activation: NONE, Method: STANDARD PLATE): inactive; negative
mutagenic call (Test System: AMES SALMONELLA TYPHIMURIUM, Strain/Indicator: TA98, Metabolic Activation: RAT, LIVER, S-9, AROCLOR 1254 (10%), Method: PREINCUBATION): active; positive
mutagenic call (Test System: AMES SALMONELLA TYPHIMURIUM, Strain/Indicator: TA98, Metabolic Activation: RAT, LIVER, S-9, AROCLOR 1254, Method: PREINCUBATION): active; positive
mutagenic call (Test System: AMES SALMONELLA TYPHIMURIUM, Strain/Indicator: TA98, Metabolic Activation: RAT, LIVER, S-9, AROCLOR 1254, Method: STANDARD PLATE): inactive; negative
mutagenic call (Test System: AMES SALMONELLA TYPHIMURIUM, Strain/Indicator: TA100, Metabolic Activation: HAMSTER, LIVER, S-9, AROCLOR 1254 (10%), Method: PREINCUBATION): inactive; negative
mutagenic call (Test System: AMES SALMONELLA TYPHIMURIUM, Strain/Indicator: TA100, Metabolic Activation: HAMSTER, LIVER, S-9, AROCLOR 1254, Method: PREINCUBATION): inactive; negative
mutagenic call (Test System: AMES SALMONELLA TYPHIMURIUM, Strain/Indicator: TA100, Metabolic Activation: NONE, Method: PREINCUBATION): inactive; negative
mutagenic call [1]: inactive; negative
mutagenic call (Test System: AMES SALMONELLA TYPHIMURIUM, Strain/Indicator: TA100, Metabolic Activation: RAT, LIVER, S-9, AROCLOR 1254 (10%), Method: PREINCUBATION): inactive; negative
mutagenic call (Test System: AMES SALMONELLA TYPHIMURIUM, Strain/Indicator: TA100, Metabolic Activation: RAT, LIVER, S-9, AROCLOR 1254, Method: PREINCUBATION): inactive; negative
mutagenic call (Test System: AMES SALMONELLA TYPHIMURIUM, Strain/Indicator: TA100, Metabolic Activation: RAT, LIVER, S-9, AROCLOR 1254, Method: STANDARD PLATE): inactive; negative
mutagenic call (Test System: AMES SALMONELLA TYPHIMURIUM, Strain/Indicator: TA1535, Metabolic Activation: HAMSTER, LIVER, S-9, AROCLOR 1254 (10%), Method: PREINCUBATION): active; positive
mutagenic call (Test System: AMES SALMONELLA TYPHIMURIUM, Strain/Indicator: TA1535, Metabolic Activation: HAMSTER, LIVER, S-9, AROCLOR 1254, Method: PREINCUBATION): active; positive
mutagenic call (Test System: AMES SALMONELLA TYPHIMURIUM, Strain/Indicator: TA1535, Metabolic Activation: NONE, Method: PREINCUBATION): inactive; negative
mutagenic call (Test System: AMES SALMONELLA TYPHIMURIUM, Strain/Indicator: TA1535, Metabolic Activation: NONE, Method: STANDARD PLATE): inactive; negative
mutagenic call (Test System: AMES SALMONELLA TYPHIMURIUM, Strain/Indicator: TA1535, Metabolic Activation: RAT, LIVER, S-9, AROCLOR 1254 (10%), Method: PREINCUBATION): active; positive
mutagenic call (Test System: AMES SALMONELLA TYPHIMURIUM, Strain/Indicator: TA1535, Metabolic Activation: RAT, LIVER, S-9, AROCLOR 1254, Method: PREINCUBATION): active; positive
mutagenic call (Test System: AMES SALMONELLA TYPHIMURIUM, Strain/Indicator: TA1535, Metabolic Activation: RAT, LIVER, S-9, AROCLOR 1254, Method: STANDARD PLATE): inactive; negative
mutagenic call [2]: active; positive
mutagenic call (Test System: AMES SALMONELLA TYPHIMURIUM, Strain/Indicator: TA1538, Metabolic Activation: RAT, LIVER, S-9, AROCLOR 1254, Method: STANDARD PLATE): inactive; negative
mutagenic call (Test System: MOUSE LYMPHOMA, Strain/Indicator: L5178Y (TK+/TK-), Metabolic Activation: NONE, Method: SUSPENSION/PLATE): active; positive

CCC(=O)Nc1snc2ccc(C)cc12
mutagenic call [1]: inactive; negative
mutagenic call (Test System: AMES SALMONELLA TYPHIMURIUM, Strain/Indicator: TA100, Metabolic Activation: S-9, Method: STANDARD PLATE): inactive; negative
mutagenic call [2]: inactive; negative
mutagenic call (Test System: AMES SALMONELLA TYPHIMURIUM, Strain/Indicator: TA1537, Metabolic Activation: S-9, Method: STANDARD PLATE): inactive; negative
